Measured values: US6670364B2, “Antagonists of MCP-1 function and methods of use thereof” (Telik, Inc., priority 2001, dated 2003)

Experiments:
hMCP-1 [1] = target: T1, hMCP-1 (Homo sapiens, UniProt P13500); test: Inhibition of MCP-1-induced chemotaxis (96-well chamber, Example 16); assay type: cell-based; settings: THP-1 cells, 12.5 nM hMCP-1, 2 h, 96-well microchemotaxis chamber
Description: A 96-well microchemotaxis chamber with a 5 μm-pore size, PVP-coated polycarbonate filter membrane (Neuro Probe Inc., Cabin John, Md.) was used for testing. Compounds were prepared as 10 mM stock solution in DMSO. THP-1 cells (2×10^6 cells/mL) were labeled with 5 μM Calcein AM containing 0.1% F127 (Molecular Probe, Eugene, Oreg.) at 37° C. for 30 min, and then pretreated with compound at room temperature for an additional 30 min. […] The filter membrane was placed over the lower chamber, followed by a silicon gasket and the upper chamber. The pretreated THP-1 cells (4×10^5 cells/50 μL of RPMI1640 medium per well) were added to the upper chamber and incubated in 5% CO2 at 37° C. for 2 h. The migrated cells were determined with a fluorescent plate reader (LJL BioSystems, Sunnyvale, Calif.).
Target sequence in this assay (P13500 24-99): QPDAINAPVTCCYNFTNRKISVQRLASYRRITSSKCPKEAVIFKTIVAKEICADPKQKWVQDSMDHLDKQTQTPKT
Target sequence in this assay (P41597 whole entry partner): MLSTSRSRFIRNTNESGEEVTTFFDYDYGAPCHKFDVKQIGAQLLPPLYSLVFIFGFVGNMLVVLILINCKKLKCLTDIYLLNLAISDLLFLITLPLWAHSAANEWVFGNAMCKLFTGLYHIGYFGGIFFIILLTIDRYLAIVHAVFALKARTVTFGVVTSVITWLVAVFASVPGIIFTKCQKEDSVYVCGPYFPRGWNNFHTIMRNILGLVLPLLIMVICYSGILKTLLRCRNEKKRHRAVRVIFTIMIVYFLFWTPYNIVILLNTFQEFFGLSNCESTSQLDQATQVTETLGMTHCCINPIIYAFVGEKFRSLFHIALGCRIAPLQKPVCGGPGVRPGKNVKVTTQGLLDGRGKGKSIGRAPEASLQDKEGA

female Lewis rats [2] = test: Collagen-induced arthritis model in rat, i.p. (Example 23); assay type: in vivo
Description: (§1) Collagen-induced arthritis was induced in female Lewis rats as follows. Rats were injected subcutaneously with the emulsion of bovine collagen type 11 (3.3 mg/kg at day 0 and 1.67 mg/kg at day 7) and complete Freund's adjuvant (CFA) at the base of the tail at day 0 and immunized additionally at day 7. The test compounds were administered i.p. at day 0 and then once a day for 18 days or p.o. (methotrexate) at day 0 and then 3 times a week until day 18. Paw swelling was measured by the increased volume of the legs using a plethysmometer.

female Lewis rats [3] = test: Collagen-induced arthritis model in rat, p.o. (Example 24); assay type: in vivo; settings: 1 mg/kg p.o. 3 times a week until day 21 (positive control)
Description: as §1, with “p.o.” for “i.p.”, “twice” for “once”, “21” for “18”, “or” for “or p.o. (methotrexate) at day 0 and then”, “21 was also administered p.o. from day 13 to day 21 in another group.” for “18.”

male Lewis rats = test: Adjuvant arthritis model in rat (Example 22); assay type: in vivo; settings: 10 mg/kg p.o. once a day
Description: Adjuvant arthritis was induced in male Lewis rats as follows. Complete Freund's adjuvant (CFA) was mixed with PBS and 0.1 ml of the resulting emulsion was injected subcutaneously into the foot pad of the right hind paw (day=0). The test compound was administered p.o. at day 0 and then once a day for 26 days. Paw swelling was measured by the increased thickness of the foot pad.

male Wistar rats [4] = test: Anti-Thy-1 antibody induced nephritis model, per os (Example 26); assay type: in vivo, rat
Description: Anti-Thy-1 nephritis was induced by intravenous injection of anti-Thy-1-antibody to male Wistar rats. The test compound was per os administered 2 h before, immediately after, and 5 h after the anti-Thy-1 antibody treatment, and then twice a day for the following 2 days. Seven days after the anti-Thy-1 antibody treatment, the rats were sacrificed. The amount of urinary protein was determined with the DC protein assay kit (Bio-Rad, Hercules, Calif.).

hMCP-1 [5] = target: T1, hMCP-1; test: Inhibition of MCP-1-induced chemotaxis (48-well chamber, Example 21); assay type: cell-based; parameters: purchased PeproTech; settings: THP-1 cells, 2.5 nM hMCP-1, 48-well chamber, 2 hr
Description: A 48-well microchemotaxis chamber with a 5 μm-pore size, PVP-coated polycarbonate filter membrane (Neuro Probe Inc., Cabin John, Md.) was used for testing. Compounds were prepared as 10 mM stock solution in DMSO. THP-1 cells were washed with RPMI 1640 medium supplemented with 0.5% BSA and 25 mM HEPES, pH 7.4, and suspended at a density of 4×10^6 cells/mL in the same medium. A 150 μL aliquot of this suspension was treated with an equal volume of test compound solution and the mixture incubated at 37° C. for 15 min. The lower chamber was loaded with 26 μL of a 2.5 nM solution of hMCP-1 (PeproTech) in medium. The filter membrane was placed over the lower chamber, followed by a silicon rubber gasket and the upper chamber. A 50 μL aliquot of the THP-1 cell suspension containing the test compound was added to the upper chamber and the assembly incubated in a 5% CO2 atmosphere at 37+ C. for 2 hr. The chamber was then disassembled and the cells remaining on the upper surface of the filter were scrapped off with a rubber scrapper. The filter was fixed with methanol, stained with Diff-Quik solution, and mounted on a slide glass. The cells that had migrated across the filter onto the lower surface were then counted by microscopic observation.
Target sequence in this assay (P13500 24-99): as the sequence (P13500 24-99) above

ICR male mice = test: Thioglycollate-induced inflammation model (Example 17); assay type: in vivo, mouse; settings: peritoneal cavity 72 h after thioglycollate; 5 mg/kg, subcutaneous
Description: 3% Brewer's thioglycollate broth (Difco, Detroit, Mich.) was injected into the peritoneal cavity of ICR male mice, followed by subcutaneous administration of the test compound. The same dose of test compound was again administered immediately after the broth injection and 3 h later. After 72 h, the number of total elicited cells and MOMA2-positive cells in the peritoneal cavity was analyzed using an EPICS XL Beckman Coulter.

male Wistar rats [6] = test: Anti-Thy-1 antibody-induced nephritis model, s.c. (Example 19); assay type: in vivo; settings: rat; for ED-1 positive cells/glomeruli (mean ± SE): day 7
Description: The efficacy of the compounds of the present invention was also evaluated in an animal model of nephritis. This model very closely simulates the conditions found in human mesangial proliferative glomerulonephritis.
Anti-Thy-1 nephritis was induced by intravenous injection of anti-Thy-1-antibody to male Wistar rats. The test compound was subcutaneously administered 2 h before, immediately after, and 5 h after the anti-Thy-1 antibody treatment, and then twice a day for the following 2 days. Anti-MCP-1 antibody was intraperitoneally injected once a day for 3 days. Seven days after the anti-Thy-1 antibody treatment, the rats were sacrificed. The kidneys were perfused with 10% formaldehyde in PBS, surgically removed, and immersed in 10% formaldehyde. The kidneys were then embedded in paraffin for glomerular histopathology or in OCT compound (Miles Inc., Elkhart, Ind.) in liquid nitrogen after immersion in 30% sucrose overnight. Immunohistochemical staining was performed with a mouse anti-rat ED-1 monoclonal antibody. Briefly, 5 μm renal sections were prepared and endogenous peroxidase blocked with 0.3% hydrogen peroxide. The sections were then blocked with Protein Block (DAKO, Japan) and stained with anti-ED-1 antibody for 45 min. The ED-1 antigen was visualized by peroxidase-labeled anti-mouse IgG and diaminobenzidine. The amount of urinary protein was determined with the DC protein assay kit (Bio-Rad, Hercules, Calif.). The effect of a representative test compound on the level of urinary protein excretion and the infiltration of ED-1 positive cells into the glomeruli is shown in Table 10.

apoE-deficient mice = test: Apolipoprotein E-deficient mouse model of atherosclerosis (Example 20); assay type: in vivo
Description: Apolipoprotein E (apoE) is a component of several plasma lipoproteins, including chylomicrons, VLDL, and HDL. Receptor-mediated catabolism of these lipoprotein particles is mediated through the interaction of apoE with the LDL receptor (LDLR) or with LDLR-related protein (LRP). […] The efficacy of the compounds of the present invention was also evaluated using this animal model.
Male, 4 week-old apoE-deficient mice were fed on high-fat diet (15% fat, 1.25% cholesterol). The test compound was administered as food admixture for 8 weeks. At 12 week-old, the mice were fasted for 4 hours and then sacrificed under ether anesthesia. Blood was collected in the presence of heparin, and the hearts were perfused in situ with PBS (pH 7.4), followed by 4% paraformaldehyde for 5 min.
To determine cross-sectional lesion areas, the hearts were embedded in OCT compound and sectioned at 10 μm using cryostat. The sections were stained with oil red O. Each section of the aortic valve was evaluated for oil red O staining by capturing images directly from a RGB camera attached to a light microscope; image analysis was performed with the IPAP-WIN software (Sumika Tekuno, Japan). Five sections were examined for each animal, and the sum of the lesion areas was calculated and expressed as the percent of the total cross-sectional wall area. Total cholesterol was determined with a Determiner assay kit (Kyowa medex, Japan).

Cc1nn(C)c2ncc(C(=O)NC(=O)Nc3ccc(Cl)c(Cl)c3)c(Cl)c12 [Compound 37, N-{[(3,4-dichlorophenyl)amino]carbonyl}(4-chloro-1,3-Dimethylpyrazolo[5,4-b]pyridin-5-yl)carboxamide]
IC50 (hMCP-1 [1]): 12.7 µM

CN(Cc1cnc2nc(N)nc(N)c2n1)c1ccc(C(=O)N[C@@H](CCC(=O)O)C(=O)O)cc1 [methotrexate, reference compound]
Percent Swelling day 18 (female Lewis rats [2]; 1 mg/kg p.o. 3 times a week until day 18): 8.9 ± 1.2 % | Percent Swelling day 14 (female Lewis rats [3]): −0.4 ± 1.1 % | Percent Swelling day 21 (female Lewis rats [3]): −0.7 ± 1.0 %

Cc1nn(C)c2ncc(C(=O)NC(=O)Nc3ccc(F)c(C(F)(F)F)c3)c(N3CCN(C)CC3)c12.Cl [Compound 85, [1,3-Dimethyl-4-(4-methylpiperazinyl)pyrazolo[5,4-b]pyridin-5-yl]-N-({[4-fluoro-3-(trifluoromethyl)phenyl]amino}carbonyl)carboxamide hydrochloride]
Percent Swelling (foot pad) (male Lewis rats; day 11 after immunization): 39% | Percent Swelling (foot pad) (male Lewis rats; day 14 after immunization): 40% | Percent Swelling (foot pad) (male Lewis rats; day 17 after immunization): 34% | Percent Swelling (foot pad) (male Lewis rats; day 21 after immunization): 30% | Percent Swelling (foot pad) (male Lewis rats; day 22 after immunization): 26% | Percent Swelling (foot pad) (male Lewis rats; day 26 after immunization): 27% | Urinary Protein (mg/mg creatinine) (male Wistar rats [4]; 0.1 mg/kg per os): 33.4 ± 5.1 mg/mg creatinine | Urinary Protein (mg/mg creatinine) (male Wistar rats [4]; 1 mg/kg per os): 32.4 ± 5.9 mg/mg creatinine | Urinary Protein (mg/mg creatinine) (male Wistar rats [4]; 10 mg/kg per os): 23.5 ± 7.2 mg/mg creatinine | IC50 (hMCP-1 [5]): 0.09 µM

Cc1nn(C)c2ncc(C(=O)NC(=O)Nc3ccc(F)c(C(F)(F)F)c3)cc12 [Compound 11, (1,3-Dimethylpyrazolo[5,4-b]pyridin-5-yl)-N-({[4-fluoro-3-(trifluoromethyl)phenyl]amino}carbonyl)carboxamide]
MOMA2-positive Cells (× 10^6) (ICR male mice): 14.3 ± 1.2 × 10^6 | Total Cells (× 10^6) (ICR male mice): 19.7 ± 1.6 × 10^6 | Urinary Protein (male Wistar rats [6]; 0.1 mg/kg s.c.): 182.2 ± 28.0 mg/day | ED-1 positive cells/glomeruli (mean ± SE) (male Wistar rats [6]; 0.1 mg/kg s.c.): 5.3 ± 0.7 cells/glomeruli | Urinary Protein (male Wistar rats [6]; 2 mg/kg s.c.): 117.4 ± 26.3 mg/day | ED-1 positive cells/glomeruli (mean ± SE) (male Wistar rats [6]; 2 mg/kg s.c.): 2.3 ± 0.6 cells/glomeruli | % Atherosclerotic Lesion (mean ± SD) (apoE-deficient mice; 10 mg/kg as food admixture for 8 weeks, high-fat diet, aortic valve sections, oil red O): 18.72 ± 5.27 % | body weight vs control (apoE-deficient mice; apoE-deficient mice, 8 weeks treatment, data not shown): no significant differences | percent of atherosclerotic lesion area (in words) (apoE-deficient mice; vs control group, statistically significant): reduced

Cc1nn(C)c2ncc(C(=O)NC(=O)Nc3ccc(C(=O)N4CCOCC4)c(Cl)c3)cc12 [Compound 141]
Percent Swelling day 18 (female Lewis rats [2]; 10 mg/kg i.p. once a day for 18 days): 12.3 ± 1.5 %
